Data from patent US20120156146A1, “Compositions and Methods for Improving the Appearance of Facial Texture” (priority 2010, published 2012).

Experiments:
[1] = tested on: HAS-2 gene (Hyaluronic Acid Synthase-2 gene); experiment: Hyaluronic Acid (HA) Synthase expression, GeneChip microarray in keratinocyte culture; format: cell-based; settings: human telomerized keratinocytes, 10 micro molar, 6 hours exposure, six Affymetrix GeneChips, p-value=0.0366
Experimental: Individual experiments (referred to as batches) are generally comprised of 60 Affymetrix GeneChips® (referred to as “instances”) containing 6 vehicle control samples, 2 positive control samples and 52 individual test material samples. Duplication of test materials is performed across batches. In vitro testing is performed in 6-well plates to provide sufficient RNA for GeneChip® analysis (2-4 ug total RNA yield/well). Human telomerized keratinocytes are grown in EpiLife® media with 1× Human Keratinocyte Growth Supplement (Invitrogen) on collagen I coated cell culture flasks and plates (Becton Dickinson). Cells are seeded into 6-well plates at 20,000 cells/cm2 24 hours before chemical exposure. At t=−24 hours cells are trypsinized from T-75 flasks and plated into 6-well plates in basal growth medium. At t=0 media is removed and replaced with the appropriate dosing solution as per the experimental design. Dosing solutions are prepared the previous day in sterile 4 ml Falcon snap cap tubes. After 6 hours of chemical exposure cells are viewed and imaged. Cells are then lysed with 350 ul/well of RLT buffer containing β-mercaptoethanol (Qiagen), transferred to a 96-well plate, and stored at −20° C. […]
Data quality was determined using a variety of statistical measures, including t-tests, scatter biplots, and principal components analysis, depending upon the source and character of the data. […]

[2] = tested on: textured facial skin (upper cheek area); experiment: In vivo facial texture test (Texture Area Fraction, split face, vehicle controlled); parameters: species or system human; settings: vehicle+5% Hexyldecanol, 0.5 g per side of face twice daily, topical, 8 weeks, 330 subjects
Experimental: A 9 week in vivo study was conducted using a round robin, vehicle controlled, split face design including a 1 week normalization period with 330 subjects.
Treatment Regimen—The regimen begins with a one week washout period. […]
Images of the facial treatment sites are captured at baseline (week 0), and after 4 and 8 weeks of treatment and analyzed for changes to facial texture. […]
The region of interest (ROI), in this case the upper cheek area, was marked manually based on 12 predefined facial landmarks around the cheek—for example, corners of the eye, bridge of the nose, corners of the mouth. The degree of textured skin in the ROI were quantified objectively using image analysis algorithms based on an Optimus software platform, which automatically locates each surface feature and quantifies the total number, length and area of facial features shorter than 5 mm and less than 0.16 mm wide, known magnification used to convert pixel data to actual length and area data. […]

SMILES: CCCCCCCCC(CO)CCCCCC (centres unmarked) [Hexyldecanol, 2-hexyldecan-1-ol]
- average fold change of transcriptional expression level of HAS-2 probe set IDs [1]: 1.336 fold change
- Texture Area Fraction reduction versus vehicle control [2]: significantly (p<=0.10) reducing Texture Area Fraction better than the control
